Among the data in patent publication US8124610B2, “Sodium channel inhibitors” (Icagen Inc., priority 2007, dated 2012) are IC50 values, retold here.

Assay [1] has as its target T1, hSCN3A (Homo sapiens, UniProt Q9NY46).
T1 construct: expressed in transfected cells
Kind of assay: Whole-cell patch-clamp electrophysiology (conventional or PatchXpress), HEK cells expressing hSCN3A, estimated IC-50. Type of assay: cell-based. The conditions noted are these: estimated IC-50, HEK cells expressing hSCN3A; class symbols or bounds; read-out: SCN3A EIC-50. In a few lines:
(§1)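 Current through each channel was evoked by a 20 ms step to 0 mV following an 8 s conditioning prepulse at the cell's own half-inactivation voltage. Recordings used HEK lines stably expressing the channel, conventional or PatchXpress patch clamp, room temperature, pH 7.4 bath; inhibition taken as pre/post-compound amplitude change.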

Assay [2] has as its target T2, hSCN9A (Homo sapiens, UniProt Q15858).
T2 construct: expressed in transfected cells
Description: Whole-cell patch-clamp electrophysiology (conventional or PatchXpress), HEK cells expressing hSCN9A, estimated IC-50. The conditions noted are these: estimated IC-50, HEK cells expressing hSCN9A; class symbols or bounds; read-out: SCN9A EIC-50. Type of assay: cell-based. The method in brief: as §1

T2 sequence (Q15858 whole entry): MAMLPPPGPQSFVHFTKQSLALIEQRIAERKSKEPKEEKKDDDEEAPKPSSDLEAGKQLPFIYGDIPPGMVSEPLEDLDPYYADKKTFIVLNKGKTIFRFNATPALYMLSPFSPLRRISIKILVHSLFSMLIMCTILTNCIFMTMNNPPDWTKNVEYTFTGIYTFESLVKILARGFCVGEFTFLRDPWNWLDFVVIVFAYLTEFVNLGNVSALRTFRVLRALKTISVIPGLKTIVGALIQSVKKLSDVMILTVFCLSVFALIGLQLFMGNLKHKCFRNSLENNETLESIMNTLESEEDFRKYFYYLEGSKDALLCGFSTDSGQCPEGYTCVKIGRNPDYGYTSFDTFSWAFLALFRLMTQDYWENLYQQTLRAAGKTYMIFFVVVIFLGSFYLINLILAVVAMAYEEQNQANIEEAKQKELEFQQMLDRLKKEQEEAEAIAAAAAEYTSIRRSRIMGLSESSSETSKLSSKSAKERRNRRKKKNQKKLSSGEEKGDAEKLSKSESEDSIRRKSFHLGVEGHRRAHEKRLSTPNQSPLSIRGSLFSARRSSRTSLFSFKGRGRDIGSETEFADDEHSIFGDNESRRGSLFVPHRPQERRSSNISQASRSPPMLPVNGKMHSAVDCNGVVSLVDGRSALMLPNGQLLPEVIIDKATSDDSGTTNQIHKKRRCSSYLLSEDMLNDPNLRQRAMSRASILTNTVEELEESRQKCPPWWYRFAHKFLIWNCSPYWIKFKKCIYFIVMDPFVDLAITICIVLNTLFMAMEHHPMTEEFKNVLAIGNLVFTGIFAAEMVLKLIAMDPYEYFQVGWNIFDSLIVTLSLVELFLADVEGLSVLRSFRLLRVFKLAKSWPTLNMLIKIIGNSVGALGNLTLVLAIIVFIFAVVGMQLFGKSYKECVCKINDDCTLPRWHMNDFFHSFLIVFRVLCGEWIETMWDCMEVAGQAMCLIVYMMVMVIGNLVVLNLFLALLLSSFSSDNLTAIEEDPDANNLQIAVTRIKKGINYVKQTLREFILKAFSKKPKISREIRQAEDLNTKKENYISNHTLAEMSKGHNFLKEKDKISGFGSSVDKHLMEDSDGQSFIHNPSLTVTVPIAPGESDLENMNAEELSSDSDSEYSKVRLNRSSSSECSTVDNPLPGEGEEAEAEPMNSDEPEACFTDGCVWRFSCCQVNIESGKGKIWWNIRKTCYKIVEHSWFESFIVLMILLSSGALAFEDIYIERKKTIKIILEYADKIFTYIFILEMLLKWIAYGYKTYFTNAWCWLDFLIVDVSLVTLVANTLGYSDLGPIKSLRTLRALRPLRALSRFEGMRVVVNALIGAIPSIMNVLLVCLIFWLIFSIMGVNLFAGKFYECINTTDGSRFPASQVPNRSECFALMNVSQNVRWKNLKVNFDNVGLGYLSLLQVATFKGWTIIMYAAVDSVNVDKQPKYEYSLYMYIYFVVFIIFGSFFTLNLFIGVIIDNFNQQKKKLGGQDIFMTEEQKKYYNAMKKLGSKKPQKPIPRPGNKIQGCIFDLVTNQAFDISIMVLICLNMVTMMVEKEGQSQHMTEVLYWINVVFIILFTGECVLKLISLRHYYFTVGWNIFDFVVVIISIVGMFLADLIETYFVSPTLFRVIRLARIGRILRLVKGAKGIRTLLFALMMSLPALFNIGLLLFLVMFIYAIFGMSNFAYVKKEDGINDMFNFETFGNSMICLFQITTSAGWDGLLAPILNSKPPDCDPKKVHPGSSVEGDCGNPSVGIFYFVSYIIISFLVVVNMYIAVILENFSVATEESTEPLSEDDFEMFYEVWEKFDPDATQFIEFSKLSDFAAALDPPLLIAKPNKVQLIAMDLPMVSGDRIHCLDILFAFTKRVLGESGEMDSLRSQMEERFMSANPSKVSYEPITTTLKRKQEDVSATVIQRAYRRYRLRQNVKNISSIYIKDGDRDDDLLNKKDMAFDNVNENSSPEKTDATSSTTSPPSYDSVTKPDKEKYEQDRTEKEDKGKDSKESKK
T1 sequence (Q9NY46 whole entry): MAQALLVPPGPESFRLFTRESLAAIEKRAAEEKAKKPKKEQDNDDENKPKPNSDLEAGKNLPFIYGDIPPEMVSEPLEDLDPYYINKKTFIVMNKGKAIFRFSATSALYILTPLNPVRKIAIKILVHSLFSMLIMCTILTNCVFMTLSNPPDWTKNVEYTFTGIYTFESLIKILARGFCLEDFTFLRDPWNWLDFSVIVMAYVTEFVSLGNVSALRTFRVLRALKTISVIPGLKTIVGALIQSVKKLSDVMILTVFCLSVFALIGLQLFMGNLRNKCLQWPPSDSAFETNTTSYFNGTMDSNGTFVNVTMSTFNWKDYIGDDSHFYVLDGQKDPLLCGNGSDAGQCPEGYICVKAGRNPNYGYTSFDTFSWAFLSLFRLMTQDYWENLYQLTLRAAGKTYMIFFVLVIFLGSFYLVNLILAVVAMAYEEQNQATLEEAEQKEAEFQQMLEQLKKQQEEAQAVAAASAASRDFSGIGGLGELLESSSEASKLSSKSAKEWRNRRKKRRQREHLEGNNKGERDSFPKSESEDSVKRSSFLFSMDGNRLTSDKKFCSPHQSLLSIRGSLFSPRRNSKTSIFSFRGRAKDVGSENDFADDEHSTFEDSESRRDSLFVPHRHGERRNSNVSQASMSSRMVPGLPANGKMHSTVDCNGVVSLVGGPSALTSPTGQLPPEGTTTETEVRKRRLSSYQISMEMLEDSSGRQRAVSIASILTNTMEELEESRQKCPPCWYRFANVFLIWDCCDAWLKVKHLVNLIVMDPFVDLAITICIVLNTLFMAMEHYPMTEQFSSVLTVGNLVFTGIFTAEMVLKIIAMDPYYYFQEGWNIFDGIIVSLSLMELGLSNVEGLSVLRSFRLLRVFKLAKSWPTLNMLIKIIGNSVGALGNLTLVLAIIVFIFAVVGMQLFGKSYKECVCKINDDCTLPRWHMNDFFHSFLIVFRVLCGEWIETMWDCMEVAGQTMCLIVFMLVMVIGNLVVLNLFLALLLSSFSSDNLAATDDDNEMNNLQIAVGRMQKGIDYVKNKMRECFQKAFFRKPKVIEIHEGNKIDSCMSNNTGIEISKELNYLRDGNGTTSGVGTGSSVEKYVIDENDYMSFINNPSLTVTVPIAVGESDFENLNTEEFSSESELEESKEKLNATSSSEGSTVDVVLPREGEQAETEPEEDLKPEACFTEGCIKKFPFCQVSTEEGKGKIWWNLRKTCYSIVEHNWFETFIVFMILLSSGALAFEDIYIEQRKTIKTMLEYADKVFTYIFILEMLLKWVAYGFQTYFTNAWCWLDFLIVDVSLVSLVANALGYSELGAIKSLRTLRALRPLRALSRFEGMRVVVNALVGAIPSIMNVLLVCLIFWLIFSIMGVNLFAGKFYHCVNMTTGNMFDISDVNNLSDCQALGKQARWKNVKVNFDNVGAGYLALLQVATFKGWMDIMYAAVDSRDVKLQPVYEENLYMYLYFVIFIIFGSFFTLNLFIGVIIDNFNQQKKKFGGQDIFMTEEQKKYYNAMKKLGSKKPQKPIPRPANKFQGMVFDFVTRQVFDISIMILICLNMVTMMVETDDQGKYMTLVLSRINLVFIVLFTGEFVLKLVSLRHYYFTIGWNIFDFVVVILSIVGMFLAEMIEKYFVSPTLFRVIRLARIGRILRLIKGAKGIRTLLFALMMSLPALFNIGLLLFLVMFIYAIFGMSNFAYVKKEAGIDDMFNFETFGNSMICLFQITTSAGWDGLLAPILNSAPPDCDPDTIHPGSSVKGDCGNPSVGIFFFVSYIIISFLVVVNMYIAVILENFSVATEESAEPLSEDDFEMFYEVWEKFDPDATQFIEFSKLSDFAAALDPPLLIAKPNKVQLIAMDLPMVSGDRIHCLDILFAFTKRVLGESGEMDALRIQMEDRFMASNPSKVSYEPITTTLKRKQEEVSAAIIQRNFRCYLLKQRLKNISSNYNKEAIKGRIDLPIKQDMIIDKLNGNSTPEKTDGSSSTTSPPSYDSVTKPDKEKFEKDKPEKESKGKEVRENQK

Regarding `CC(C)(C)c1ccc(OCc2csc(Nc3ccc(S(=O)(=O)Nc4nccs4)cc3)n2)cc1` [Compound 62, 4-(4-((4-tert-butylphenoxy)methyl)thiazol-2-ylamino)-N-(thiazol-2-yl)benzenesulfonamide], the IC50 in assay [1] is under 2000 nM; in assay [2], 2000 to 10000 nM.

In the case of `CC(Oc1ccccc1)c1csc(Nc2ccc(S(=O)(=O)Nc3nccs3)cc2)n1` (stereo not shown) [Compound 63, 4-(4-(1-phenoxyethyl)thiazol-2-ylamino)-N-(thiazol-2-yl)benzenesulfonamide], the IC50 in assay [1] is under 2000 nM; in assay [2], 2000 to 10000 nM.

`O=S(=O)(Nc1nccs1)c1ccc(Nc2nc(C3(c4ccc(Cl)cc4)CCCC3)cs2)cc1` [Compound 64, 4-(4-(1-(4-chlorophenyl)cyclopentyl)thiazol-2-ylamino)-N-(thiazol-2-yl)benzenesulfonamide]: the figures for the IC50 in assay [1] and in assay [2] were under 2000 nM and over 1000 nM, respectively.

Turning to `O=S(=O)(Nc1nccs1)c1ccc(Nc2nc(CNCc3ccc(Cl)cc3)cs2)cc1` [Compound 65, 4-(4-((4-chlorobenzylamino)methyl)thiazol-2-ylamino)-N-(thiazol-2-yl)benzenesulfonamide], the IC50 in assay [1] and in assay [2] was under 2000 nM in each case.

Consider `COc1ccc(CCNCc2csc(Nc3ccc(S(=O)(=O)Nc4nccs4)cc3)n2)cc1OC` [Compound 66, 4-(4-((3,4-dimethoxyphenethylamino)methyl)thiazol-2-ylamino)-N-(thiazol-2-yl)benzenesulfonamide], for which the IC50 in assay [1] is over 1000 nM; in assay [2], over 3000 nM.

`CN(CCc1ccccc1)Cc1csc(Nc2ccc(S(=O)(=O)Nc3nccs3)cc2)n1` [Compound 67, 4-(4-((methyl(phenethyl)amino)methyl)thiazol-2-ylamino)-N-(thiazol-2-yl)benzenesulfonamide]: the IC50 in assay [1] is under 2000 nM; in assay [2], 2000 to 10000 nM.

Turning to `CCN(CC)Cc1csc(Nc2ccc(S(=O)(=O)Nc3nccs3)cc2)n1` [Compound 68, 4-(4-((diethylamino)methyl)thiazol-2-ylamino)-N-(thiazol-2-yl)benzenesulfonamide], the figures for the IC50 in assay [1] and in assay [2] were over 1000 nM and 2000 to 10000 nM, respectively.

In the case of `O=S(=O)(Nc1nccs1)c1ccc(Nc2nc(CNCCCCc3ccccc3)cs2)cc1` [Compound 69, 4-(4-((4-phenylbutylamino)methyl)thiazol-2-ylamino)-N-(thiazol-2-yl)benzenesulfonamide], the IC50 in assay [1] and in assay [2] was under 2000 nM in each case.

Turning to `CN(Cc1csc(Nc2ccc(S(=O)(=O)Nc3nccs3)cc2)n1)C(c1ccccc1)c1ccccc1` [Compound 70, 4-(4-((benzhydryl(methyl)amino)methyl)thiazol-2-ylamino)-N-(thiazol-2-yl)benzenesulfonamide], the IC50 in assay [1] was under 2000 nM; in assay [2], over 1000 nM.

Turning to `O=S(=O)(Nc1nccs1)c1ccc(Nc2nc(CNCc3ccc(C(F)(F)F)cc3)cs2)cc1` [Compound 71, N-(thiazol-2-yl)-4-(4-((4-(trifluoromethyl)benzylamino)methyl)thiazol-2-ylamino)benzenesulfonamide], the results for the IC50 in assay [1] and in assay [2] were under 2000 nM and 2000 to 10000 nM, respectively.

Consider `O=[N+]([O-])c1ccc(CNCc2csc(Nc3ccc(S(=O)(=O)Nc4nccs4)cc3)n2)cc1` [Compound 72, 4-(4-((4-nitrobenzylamino)methyl)thiazol-2-ylamino)-N-(thiazol-2-yl)benzenesulfonamide], for which the values for the IC50 in assay [1] and in assay [2] were under 2000 nM and 2000 to 10000 nM, respectively.

Take `CN(C)c1ccc(CNCc2csc(Nc3ccc(S(=O)(=O)Nc4nccs4)cc3)n2)cc1` [Compound 73, 4-(4-((4-(dimethylamino)benzylamino)methyl)thiazol-2-ylamino)-N-(thiazol-2-yl)benzenesulfonamide]: the IC50 in assay [1] was under 2000 nM; in assay [2], 2000 to 10000 nM.

Turning to `O=S(=O)(Nc1nccs1)c1ccc(Nc2nc(CNC3CCCCCC3)cs2)cc1` [Compound 74, 4-(4-((cycloheptylamino)methyl)thiazol-2-ylamino)-N-(thiazol-2-yl)benzenesulfonamide], the IC50 in assay [1] and in assay [2] was 2000 to 10000 nM in each case.

In the case of `CN(CCc1ccncc1)Cc1csc(Nc2ccc(S(=O)(=O)Nc3nccs3)cc2)n1` [Compound 75, 4-(4-((methyl(2-(pyridin-4-yl)ethyl)amino)methyl)thiazol-2-ylamino)-N-(thiazol-2-yl)benzenesulfonamide], the figures for the IC50 in assay [1] and in assay [2] were under 2000 nM and over 1000 nM, respectively.

For `COc1ccc(CNCc2csc(Nc3ccc(S(=O)(=O)Nc4nccs4)cc3)n2)c(OC)c1` [Compound 76, 4-(4-((2,4-dimethoxybenzylamino)methyl)thiazol-2-ylamino)-N-(thiazol-2-yl)benzenesulfonamide], the IC50 in assay [1] and in assay [2] was 2000 to 10000 nM each time.

Turning to `COC(=O)c1sc(Nc2ccc(S(=O)(=O)Nc3nccs3)cc2)nc1C` [Compound 77, methyl 4-methyl-2-(4-(N-thiazol-2-ylsulfamoyl)phenylamino)thiazole-5-carboxylate], the IC50 in assay [1] is under 2000 nM; in assay [2], over 3000 nM.

Consider `Cc1csc(Nc2ccc(S(=O)(=O)Nc3nccs3)cc2)n1` [Compound 78, 4-(4-methylthiazol-2-ylamino)-N-(thiazol-2-yl)benzenesulfonamide], for which the values for the IC50 in assay [1] and in assay [2] were 2000 to 10000 nM and over 1000 nM, respectively.

For the compound `O=S(=O)(Nc1nccs1)c1ccc(Nc2nc(Cc3ccc(F)cc3F)cs2)cc1` [Compound 79, 4-(4-(2,4-difluorobenzyl)thiazol-2-ylamino)-N-(thiazol-2-yl)benzenesulfonamide], the IC50 in assay [1] and in assay [2] was under 2000 nM throughout.

`Cc1nc(Nc2ccc(S(=O)(=O)Nc3nccs3)cc2)sc1C` [Compound 80, 4-(4,5-dimethylthiazol-2-ylamino)-N-(thiazol-2-yl)benzenesulfonamide]: the figures for the IC50 in assay [1] and in assay [2] were 2000 to 10000 nM and over 1000 nM, respectively.

For `O=S(=O)(Nc1nccs1)c1ccc(Nc2nccc(OCC3CCCCC3)n2)cc1` [Compound 81, 4-(4-(cyclohexylmethoxy)pyrimidin-2-ylamino)-N-(thiazol-2-yl)benzenesulfonamide], the IC50 in assay [1] is under 2000 nM; in assay [2], over 10000 nM.

For `O=S(=O)(Nc1nccs1)c1ccc(Nc2nc(CSc3ccc(F)cc3)cs2)cc1` [Compound 82, 4-(4-((4-fluorophenylthio)methyl)thiazol-2-ylamino)-N-(thiazol-2-yl)benzenesulfonamide], the IC50 in assay [1] and in assay [2] was under 2000 nM throughout.

As for `O=S(=O)(Nc1nccs1)c1ccc(Nc2nc(C(F)(F)F)cs2)cc1` [Compound 83, N-(thiazol-2-yl)-4-(4-(trifluoromethyl)thiazol-2-ylamino)benzenesulfonamide], the IC50 in assay [1] was under 2000 nM; in assay [2] it was 2000 to 10000 nM.

On to `O=S(=O)(Nc1nccs1)c1ccc(Nc2nc(-c3ccc(C(F)(F)F)cc3)cs2)cc1` [Compound 84, N-(thiazol-2-yl)-4-(4-(4-(trifluoromethyl)phenyl)thiazol-2-ylamino)benzenesulfonamide], for which the IC50 in assay [1] and in assay [2] was under 2000 nM in each case.

For the compound `COc1ccnc(Nc2ccc(S(=O)(=O)Nc3nccs3)cc2)n1` [Compound 85, 4-(4-methoxypyrimidin-2-ylamino)-N-(thiazol-2-yl)benzenesulfonamide], the IC50 in assay [1] is over 1000 nM; in assay [2] it was over 3000 nM.

With `O=S(=O)(Nc1nccs1)c1ccc(Nc2nc(C[S+]([O-])c3ccc(F)cc3)cs2)cc1` (stereo not shown) [Compound 89, 4-(4-((4-fluorophenylsulfinyl)methyl)thiazol-2-ylamino)-N-(thiazol-2-yl)benzenesulfonamide], the figures for the IC50 in assay [1] and in assay [2] were 2000 to 10000 nM and over 1000 nM, respectively.

Turning to `O=S(=O)(Nc1nccs1)c1ccc(Nc2nc(-c3ccc(C(F)(F)F)cc3F)cs2)cc1` [Compound 90, 4-(4-(2-fluoro-4-(trifluoromethyl)phenyl)thiazol-2-ylamino)-N-(thiazol-2-yl)benzenesulfonamide], the IC50 is under 2000 nM in assay [1] and over 1000 nM in assay [2].

With `O=S(=O)(Nc1nccs1)c1ccc(Nc2nc(Cc3ccc(Cl)cc3)cs2)cc1` [Compound 91, 4-(4-(4-chlorobenzyl)thiazol-2-ylamino)-N-(thiazol-2-yl)benzenesulfonamide], the IC50 in assay [1] and in assay [2] was under 2000 nM in each case.

For the compound `O=S(=O)(Nc1nccs1)c1ccc(Nc2cncc(C(c3ccccc3)c3ccccc3)n2)cc1` [Compound 92, 4-(6-benzhydrylpyrazin-2-ylamino)-N-(thiazol-2-yl)benzenesulfonamide], the IC50 in assay [1] was under 2000 nM; in assay [2], 2000 to 10000 nM.

For the compound `O=S(=O)(Nc1nccs1)c1ccc(Nc2cccc(C(c3ccccc3)c3ccccc3)n2)cc1` [Compound 93, 4-(6-benzhydrylpyridin-2-ylamino)-N-(thiazol-2-yl)benzenesulfonamide], the figures for the IC50 in assay [1] and in assay [2] were under 2000 nM and over 1000 nM, respectively.

In the case of `O=S(=O)(Nc1nccs1)c1ccc(Nc2nc(CCCOc3ccc(Cl)cc3)cs2)cc1` [Compound 94, 4-(4-(3-(4-chlorophenoxy)propyl)thiazol-2-ylamino)-N-(thiazol-2-yl)benzenesulfonamide], the IC50 in assay [1] and in assay [2] was under 2000 nM each time.

Consider `O=S(=O)(Nc1nccs1)c1ccc(Nc2nc(COc3ccc(Cl)cc3Cl)cs2)cc1` [Compound 95, 4-(4-((2,4-dichlorophenoxy)methyl)thiazol-2-ylamino)-N-(thiazol-2-yl)benzenesulfonamide], for which the IC50 in assay [1] and in assay [2] was under 2000 nM throughout.

`Cc1cc(Cl)ccc1OCc1csc(Nc2ccc(S(=O)(=O)Nc3nccs3)cc2)n1` [Compound 96, 4-(4-((4-chloro-2-methylphenoxy)methyl)thiazol-2-ylamino)-N-(thiazol-2-yl)benzenesulfonamide]: the IC50 in assay [1] and in assay [2] was under 2000 nM throughout.
